≈ marks a conversion by molar mass, not a printed value. Where two headings read alike, the source gives them in different places.
What was measured:
[1] = system: Escherichia coli; assay: In vitro antibacterial activity, agar dilution MIC (Experiment 1); assay type: cell-based
Method: (§1) Tested strains: all the clinically separated strains below were purchased from public facilities.
(§2) Escherichia coli ATCC25922, Pseudomonas aeruginosa ATCC27853, Klebsiella pneumoniae ATCC700603, and the like.
(§3) Tested Samples: Imipenem, Ceftazidime: Commercial Products, the Following Experiments were Carried Out According to the Content of an Effective Ingredient in Each Commercial Product;
(§4) The compounds of the present invention, their chemical names, and preparation methods are shown in the preparation example of each compound.
(§5) Experiment method: Agar dilution method, refer to National Committee for Clinical Laboratory Standards. 2006. Methods for Dilution Antimicrobial Susceptibility Tests for Bacteria That Grow Aerobically; Approved Standard—Seventh Edition M7-A7, Vol 26, No. 2, 2006, to determine the MIC of the compound. MIC represents the minimum inhibitory concentration.

[2] = system: Klebsiella pneumoniae; assay: as above; assay type: cell-based
Method: as §1, §2, §3, §4, §5

[3] = system: Pseudomonas aeruginosa; assay: as above; assay type: cell-based
Method: as §1, §2, §3, §4, §5

[4] = system: polymyxin-resistant mcr-1 positive Enterobacteriaceae; assay: In vitro antibacterial effect on polymyxin-resistant mcr-1 positive Enterobacteriaceae, agar dilution MIC (Experiment 2); assay type: cell-based, Escherichia coli
Method: Tested samples: the compounds of the present invention, prepared according to the methods of the preparation examples;
Polymyxin E sulphate, Ampicillin, Cefotaxime, Gentamicin, Ciprofloxacin, Tetracycline, and Bactrim were all commercial products, the following experiments were carried out according to the content of an effective ingredient in each commercial product.
Tested strains: Escherichia coli carrying mcr-1 gene isolated from animals and Escherichia coli ATCC25922, a quality control strain, were provided by South China Agricultural University.
With reference to the agar dilution method in CLSI, the MIC value of the tested drugs to the polymyxin resistant mcr-1 positive Escherichia coli were determined.
Preparation of drug-containing agar plates: a drug solution with the highest concentration was prepared for each compound; the drug solution with the highest concentration was subjected to the double dilution; for each of dilution gradient, 1 mL (20×drug working solution) of the drug solution was added to 19 mL MH agar at 45-50° C.; immediately after addition, the agar and the drug solution were uniformly mixed to give a drug-containing agar plate with final concentrations of […], and the plate was solidified for later use; and in the meanwhile, a growth control group was arranged.
Inoculum preparation and culture: the strains stored at −80° C. were rejuvenated and formulated with broth so that the turbidity reached or exceeded 0.5 #McFarland unit; a 96-well plate was used as the inoculation tank, and the bacterial solution was diluted with sodium chloride injection so that the content of bacteria inoculated on the agar was 10^4 CFU/point. A multi-point inoculation instrument was used to inoculate the bacterial solution to the surface of the labeled drug-containing agar. After the water in the inoculation point was completely absorbed by the agar, the plate was placed upside down in a 37° C. constant-temperature incubator and incubated for 16-20 hours.

[5] = system: Pseudomonas aeruginosa; assay: In vitro antibacterial activity against Pseudomonas aeruginosa, agar dilution MIC (Experiment 3); assay type: cell-based; details: CLSI 2018 (Table 5)
Method: Tested samples: the compound of the present invention, prepared according to the preparation example method; Compound C, prepared with reference to WO2008154642A2.
With reference to the steps of the agar dilution method in the 2018 USA Clinical and Laboratory Standards Institute (CLSI), the determination of the minimum inhibitory concentration (MIC) of the compounds against the strain(s) was carried out.
Preparation of drug-containing plate: (1) a drug solution with the highest concentration was prepared, and the highest concentration of each compound was 160 μg/mL. (2) For each compound, the drug solution with the highest concentration was subjected to the double dilution, and a total of 10 concentration gradients was obtained; for each of dilution gradient, 2 mL of the drug solution was added to 18 mL MH agar solution which had been autoclaved at 121° C. and cooled to about 50° C.; the mixture was uniformly mixed, left stand and cooled to give a drug-containing plate; and the plate was labeled. The final concentrations of the compound were respectively 16, 8, 4, 2, 1, 0.5, 0.25, 0.125, 0.06 and 0.03 μg/mL.
Inoculum preparation and inoculation: A fresh single colony was selected, diluted with 0.9% sodium chloride injection, adjusted to 0.5 #McFarland turbidity, and then diluted 10 times with 0.9% sodium chloride injection, then inoculated with an automatic multi-point inoculation instrument to the labeled drug-containing plate.

[6] = Pharmacokinetics (PK) determination in SD rats (Experiment 4); assay type: in vivo; details: plasma; for Cl_obs / Vz_obs / t1/2z / λ_z: IV 2 mg/kg; for AUC(0-t) / AUC(0-inf): Sprague-Dawley (SD), rat, iv; for AUC(0-inf): read-out: AUCINF_obs
Method: The compound of the present invention, self-prepared and dissolved in a suitable solvent.
Instrument and equipment: API4000 LC-MS/MS
Chromatographic column: Waters XBridge C18(2.1×50 mm, […])
Rat blood collection: Animals were fixed. The animal's tail was heated with a water bathtub 10 minutes before each time point. About 200 μL of the blood was collected through the caudal vein. After the blood collection, the blood was placed in an anticoagulation tube containing heparin sodium. The blood samples were centrifuged at 8000 rpm for 6 minutes at 4° C. to obtain plasma samples. The plasma must be prepared within 30 minutes after the blood collection. The plasma was stored in a refrigerator at −80° C. before the test.
(1) Test samples were removed from the refrigerator (−80° C.), naturally thawed at room temperature, and then vortexed for 5 minutes;
(2) 20 μL sample was precisely pipetted to a 1.5 mL centrifuge tube;
(3) 200 μL of the internal standard solution was added;
(4) The mixture was vortexed for 5 minutes and centrifuged for 5 minutes (12000 revolutions per minute);
(5) 100 μL of the supernate was precisely pipetted, 100 μL of water was added, the mixture was vortexed for 5 minutes, and the sample was sent to LC-MS/MS for analysis.
The results of the concentrations of the test samples (plasma samples) were output with Analyst 1.6.1 of AB Corporation. The meaning value, the standard deviation, the coefficient of variation, and other parameters (not necessary to calculate the parameter that can be directly output from Analyst 1.6.1) were calculated with Microsoft Excel, and the PK parameter is calculated with Pharsight Phoenix 6.1 software.

[7] = agar dilution (Table 3), read-out: MIC50
[8] = agar dilution (Table 3), read-out: MIC90

Row | MIC50 ([2]; agar dilution, read-out: MIC50) [µg/mL] | MIC90 ([2]; agar dilution, read-out: MIC90) [µg/mL] | MIC50 [3, 7] [µg/mL] | MIC90 [3, 8] [µg/mL] | Cl_obs [6] [mL/min/kg] | Vz_obs [6] [L/kg] | t1/2z [6] [min] | λ_z [6] [h⁻¹] | MIC50 ([1]; agar dilution, read-out: MIC50) [µg/mL] | MIC90 ([1]; agar dilution, read-out: MIC90) [µg/mL] | SMILES | MIC50 [1] [µg/mL] | MIC90 [1] [µg/mL] | MIC50 [5] [µg/mL] | MIC90 ([5]; read-out: MIC90) [µg/mL] | AUC(0-t) ([6]; 2 mg/kg) [ng·h/mL] | AUC(0-inf) ([6]; 2 mg/kg) [ng·h/mL] | also measured
1 | 1 (≈ 2.21 µM) | 1 (≈ 2.21 µM) | 1 (≈ 2.21 µM) | 8 (≈ 17.7 µM) | 30 ± 8.33 | 0.52 ± 0.02 | 12.6 ± 3.6 | 3.47 ± 1.09 | 0.25 (≈ 0.554 µM) | 0.25 (≈ 0.554 µM) | C[C@@H](O)[C@H](NC(=O)c1ccc(C#CC#Cc2ccc(CN3CCOCC3)o2)cc1)C(=O)NO [Compound 23, N-((2S,3R)-3-hydroxy-1-(hydroxyamino)-1-oxobutan-2-yl)-4-((5-(morpholinomethyl)furan-2-yl)buta-1,3-diynyl)benzamide] | – | – | – | – | 1160 ± 278 | 1160 ± 277 | –
2 | – | – | – | – | – | – | – | – | – | – | C[C@@H](O)[C@H](NC(=O)c1ccc(C#CC#Cc2ccc(CO)cc2)cc1)C(=O)NO [Compound C] | – | – | 4 (≈ 10.2 µM) | > 16 | – | – | MIC90 [5]: >16 µg/mL
3 | 0.125 (≈ 0.314 µM) | 0.25 (≈ 0.627 µM) | 0.25 (≈ 0.627 µM) | 1 (≈ 2.51 µM) | 22 ± 5.5 | 0.61 ± 0.20 | 19.2 ± 2.4 | 2.21 ± 0.29 | ≤ 0.03 | 0.06 (≈ 0.151 µM) | C[C@@H](O)[C@H](NC(=O)c1ccc(C#CC#Cc2ccc(CO)s2)cc1)C(=O)NO [Compound 41, N-((2S,3R)-3-hydroxy-1-(hydroxyamino)-1-oxobutan-2-yl)-4-((5-(hydroxymethyl)thienyl-2-yl)buta-1,3-diynyl)benzamide] | – | – | – | – | 1590 ± 447 | 1590 ± 446 | –

Row | SMILES | MIC50 ([2]; agar dilution, read-out: MIC50) [µg/mL] | MIC90 ([2]; agar dilution, read-out: MIC90) [µg/mL] | MIC50 [3, 7] [µg/mL] | MIC90 [3, 8] [µg/mL] | Cl_obs [6] [mL/min/kg] | Vz_obs [6] [L/kg] | t1/2z [6] [min] | λ_z [6] [h⁻¹] | MIC50 ([1]; agar dilution, read-out: MIC50) [µg/mL] | MIC90 ([1]; agar dilution, read-out: MIC90) [µg/mL] | MIC50 [1] [µg/mL] | MIC90 [1] [µg/mL] | MIC50 [5] [µg/mL] | MIC90 ([5]; read-out: MIC90) [µg/mL] | AUC(0-t) ([6]; 2 mg/kg) [ng·h/mL] | AUC(0-inf) ([6]; 2 mg/kg) [ng·h/mL] | also measured
4 | CC(O)[C@H](NC(=O)c1ccc(C#CC#Cc2ccc(CO)o2)cc1)C(=O)NO (stereo in doubt) [Compound 6, N-((2S,3R)-3-hydroxy-1-(hydroxyamino)-1-oxobutan-2-yl)-4-((5-(hydroxymethyl)furan-2-yl)buta-1,3-diynyl)benzamide] | 1 (≈ 2.62 µM) | 1 (≈ 2.62 µM) | 0.25 (≈ 0.654 µM) | 1 (≈ 2.62 µM) | – | – | – | – | – | – | 0.125 (≈ 0.327 µM) | 0.125 (≈ 0.327 µM) | 0.5 (≈ 1.31 µM) | 1 (≈ 2.62 µM) | 4000 ± 442 | 4010 ± 443 | MIC90 ([4]; Escherichia coli, read-out: MIC90 Value, polymyxin-resistant mcr-1 positive Escherichia coli, agar dilution): 1 µg/mL (≈ 2.62 µM); MIC90 Value ([4]; polymyxin-resistant mcr-1 positive Escherichia coli, agar dilution): 0.5 µg/mL (≈ 1.31 µM); Cl_obs ([6]; 2 mg/kg): 8.33 ± 1 mL/min/kg; Vz_obs ([6]; 2 mg/kg): 0.46 ± 0.14 L/kg; t1/2z ([6]; 2 mg/kg): 37.2 ± 7.2 min; λ_z ([6]; 2 mg/kg): 1.14 ± 0.21 h⁻¹
5 | C[C@@H](O)[C@H](NC(=O)c1ccc(C#CC#Cc2ccc(CN(C)C)o2)cc1)C(=O)NO [Compound 4, 4-((5-((dimethylamino)methyl)furan-2-yl)buta-1,3-diynyl)-N-((2S,3R)-3-hydroxy-1-(hydroxyamino)-1-oxobutan-2-yl)benzamide] | – | – | – | – | 80 ± 1.83 | 1.74 ± 0.81 | 15 ± 7.2 | 3.16 ± 1.28 | – | – | 0.25 (≈ 0.611 µM) | 0.25 (≈ 0.611 µM) | – | – | 414 ± 10.3 | 417 ± 9.68 | MIC50 [2]: 1 µg/mL (≈ 2.44 µM); MIC90 [2]: 2 µg/mL (≈ 4.88 µM); MIC50 [3]: 1 µg/mL (≈ 2.44 µM); MIC90 [3]: 4 µg/mL (≈ 9.77 µM)
